From patent publication US20130190370A1, “Novel Tetrahydronaphalene Antagonists to the Thromboxane A2 (TP) Receptor” (The Trustees of the University of Pennsylvania, priority 2010, published 2013)

Assays:
[1] = biological target: T1, mouse TP receptor (Mus musculus, UniProt P30987); assay: Radioligand binding assay (3H-SQ29,548), mouse TP receptor; conditions: mTP receptor
T1 construct: expressed in transfected cells
T1 sequence (P30987 1-341): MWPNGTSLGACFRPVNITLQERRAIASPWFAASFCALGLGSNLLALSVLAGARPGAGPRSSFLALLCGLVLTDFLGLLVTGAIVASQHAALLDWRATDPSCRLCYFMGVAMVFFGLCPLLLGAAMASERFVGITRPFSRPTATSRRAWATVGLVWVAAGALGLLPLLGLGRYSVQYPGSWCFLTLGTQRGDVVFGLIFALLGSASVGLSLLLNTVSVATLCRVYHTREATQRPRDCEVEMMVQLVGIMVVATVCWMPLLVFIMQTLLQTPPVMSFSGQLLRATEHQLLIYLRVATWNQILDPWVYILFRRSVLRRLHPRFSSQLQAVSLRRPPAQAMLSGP
Procedure: (§1) QBI-HEK 293A cells expressing human or mouse TxA2 (TP) receptor were grown as described previously and harvested in phosphate-buffered saline with 1 mM EDTA. The cell pellet was homogenized in a glass homogenizer in 20 mM Hepes, 1 mM EGTA, 0.5 mM DTT with protease inhibitor cocktail. The homogenate was initially centrifuged at 1000×g for 10 minutes at 8° C. to remove cell debris. The homogenate was then centrifuged in a Beckman L8-70M ultracentrifuge (Beckman-Coulter, Brea, Calif., USA) at 21,000 rpm for 30 minutes at 4° C., and the pellet was resuspended in 20 mM Hepes, 1 mM EGTA, 100 mM NaCl. Membrane preparations were normalized to protein level as determined with a BCA assay (ThermoFisher, Rockland, Ill.) and stored at −80° C.
(§2) Test antagonists were incubated at 10 different concentrations with 25 μg membrane and 25 nM ^3H-SQ29,548 (PerkinElmer, Waltham, Mass., USA) in 50 mM Tris, 4 mM CaCl2, 0.1% ascorbic acid pH 7.5 for 2 hours at 25° C. in 96-well polystyrene plates. Separation of bound from free radioligand was accomplished by rapid vacuum filtration onto 96-well GF/B filter plates (PerkinElmer, Waltham, Mass., USA). Filters were washed 8 times in 50 mM Tris, pH 6.9 and allowed to dry for 16 hours, Plates were sealed and filters dissolved in 50 μL Betaplate Scintillation fluid (PerkinElmer, Waltham, Mass., USA) and read on a scintillation counter. Data are presented as percent total binding as calculated by a minimum of 3 wells containing membrane and ^3H-SQ29,548 without antagonist.
(§3) Equilibrium dissociation constants (Kd), IC50, and Schild regression analyses was performed with GraphPad Prism software (GraphPad Software Inc., La Jolla, Calif., USA).
(§4) To facilitate the characterization of the new compounds, cell-based TP receptor functional assays were optimized. HEK293 clones have been produced that stably express the human (hTP) or mouse (mTP) TP receptor (a isoform), and treatment of these clones with I-BOP ([1S-[1α,2α(Z),3β(1E,3S*),4α]]-7-[3-[3-hydroxy-4-(4-iodophenoxy)-1-butenyl]-7-oxabicyclo[2.2.1]hept-2-yl]-5-heptenoic acid) results in increased production of inositol triphosphate (IP3) (Knezevic, et al., 1993, Blood 82:A156; Shenker, et al., 1991, J Biol Chem 266:9309-9313; Huang, et al., 2004, Cell Signal 16:521-533) which can be quantified by measuring the breakdown product, inositol monophosphates (IP1), using a commercial time-resolved fluorescence assay. […] A radioligand binding assay was also developed to allow for the determination of binding affinities of compounds at the hTP and mTP receptors.

[2] = biological target: T2, human TP receptor (Homo sapiens, UniProt P21731); assay: Radioligand binding assay (3H-SQ29,548), human TP receptor; conditions: hTP receptor
T2 construct: expressed in transfected cells
T2 sequence (P21731 1-343): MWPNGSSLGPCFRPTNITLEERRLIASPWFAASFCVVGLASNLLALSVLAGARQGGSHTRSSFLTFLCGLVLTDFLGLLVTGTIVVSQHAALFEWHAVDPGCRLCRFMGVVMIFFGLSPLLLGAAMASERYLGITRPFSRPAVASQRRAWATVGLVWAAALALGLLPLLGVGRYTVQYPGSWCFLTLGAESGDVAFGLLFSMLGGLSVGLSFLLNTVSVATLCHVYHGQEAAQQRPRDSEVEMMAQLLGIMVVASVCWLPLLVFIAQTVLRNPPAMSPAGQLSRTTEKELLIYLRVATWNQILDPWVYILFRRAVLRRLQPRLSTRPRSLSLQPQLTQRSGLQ
Procedure: as §1, §2, §3, §4

[3] = Pro-drug study: plasma levels of compound and carboxylic acid hydrolysis product (51280) by LC-MS/MS; format: in vivo; conditions: female mice, 5 mg/kg, 1 h after injection
Procedure: Ester and amide examples can serve as pro-drugs to release the potent carboxylic acid TP receptor antagonist CNDR-51280. Compounds in were administered at 5 mg/kg to female mice, and levels of the compound and the carboxylic acid hydrolysis product (51280) were evaluated by LC-MS/MS 1 h after injection (Table 3).

[4] = Brain and plasma compound levels by LC-MS/MS after 5 mg/kg i.p. injection into mice
Procedure: One-month old B6C3HF1 female mice were given intraperitoneal injections of compounds at 5 mg/kg. 1 hour after injection, mice were lethally anesthetized with an intraperitoneal injection of ketamine hydrochloride (1 mg/10 g) and xylazine (0.1 mg/10 g) and perfused intracardially with PBS in accordance with protocols approved by the University of Pennsylvania.
Brain samples were homogenized in 10 mM ammonium acetate, pH 5.7 (1:2; w/v) using a handheld sonic homogenizer. Compound from 50 μL of brain homogenate or plasma was extracted with 200 μL acetonitrile, centrifuged, and the supernatant removed for LC/MS/MS analysis. Compounds were detected using multiple reaction monitoring (MRM) of their specific collision-induced ion transitions and quantified using peak areas.
The LC/MS/MS system was comprised of an Agility UPLC, a TQ MS, and controlled using MassLynx software (Waters Corporation, Milford, Mass., USA). Samples were separated on an Aquity BEH C18 column (1.7 μm, 2.1×50 mm) at 35° C. For operation in positive electrospray ionization mode, the mobile phase A was 0.1% (v/v) formic acid, and B was either acetonitrile or methanol with 0.1% (v/v) formic acid. For operation in negative electrospray ionization mode, the mobile phase A was 10 mM ammonium acetate, and B was methanol with 10 mM ammonium acetate, Injections of 5 μL were separated at a flow rate of 0.6 mL/min using a gradient from 5% to 95% B over two minutes followed by wash and re-equilibration steps.
The MS was operated with a desolvation temperature of 450° C. and a source temperature of 150° C. Desolvation and source nitrogen gas flows were 900 L/hr and 50 L/hr, respectively. Collision cell argon gas flow was 0.1 mL/min. Source and analyzer voltages were optimized for each compound using the MassLynx auto tune utility. Compound standards at 1000 ng/mL in 50% acetonitrile were infused at 30 μL/min and combined with flow from the UPLC at 0.6 mL/min and 50% B.
Standard curves were generated from spiked brain homogenate and plasma prepared at 4, 40, 400 and 4000 ng/mL and extracted as above. Peak area was plotted versus concentration and a 1/x weighted linear regression curve was used to quantify the unknowns using the average peak area from triplicate injections,
The following experiments were designed to analyze TP receptor antagonists to determine their relative BBB penetration. The TP receptor antagonists were administered via i.p. injection at 5 mg/kg to normal mice, and brain and plasma compound concentrations were assessed by LC-MS/MS at 1 and 4 hours after dosing.
To examine the blood-brain barrier permeability of these compounds, one-month old B6C3F1 mice were injected at 5 mg/kg and sacrificed 1 hour after injection.

[5] = Unbound fractions in plasma and brain homogenates by equilibrium dialysis; format: in vitro ADME
Description: Without wishing to be bound by any particular theory, it is believed that it is possible (although uncommon) for a BBB-permeable compound to have a very low B/P ratio if the fraction of free, unbound drug is much greater in the […]. More specifically, a drug that is freely diffusible across the BBB will at equilibrium have a free drug B/P ratio (B/Pfree)=1, where B/Pfree=B/P×fu(brain))/fu(plasma) (Maurer, et al., 2005, Drug Metab Dispos. 33:175-181; Kalvasset al., 2007, Drug Metab Dispos. 35:660-666) and fti represents unbound drug fractions. […] To ensure that the low B/P ratios obtained with the TP antagonists of Table 1 were truly reflective of poor BBB permeability, the unbound fractions in plasma and brain homogenates were measured using established equilibrium dialysis methods (Maurer, et al., 2005, Drug Metab Dispos. 33:175-181; Kalvasset al., 2007, Drug Metab Dispos. 35:660-666; Friden, et al., 2007, Drug Metab Dispos. 35:1711-1719). […] This is further illustrated by comparing the calculated B/Pfree ratios (Table 1), which are <<1. Because the existing repertoire of TP receptor antagonists share common structural features, including free carboxylate moieties, it is highly unlikely that any of these existing compounds would be sufficiently brain-penetrant to be potential AD therapeutics.

[6] = female, B6C3HF1, mouse, brain/plasma (unbound), ip, 5 mg/kg
[7] = female, B6C3HF1, mouse, brain/plasma, ip, 5 mg/kg
[8] = mice, 5 mg/kg i.p., 1 h after dosing
[9] = mice, 5 mg/kg i.p., 4 h after dosing

O=C(CCc1cccc2c1CCC(NS(=O)(=O)c1ccc(Cl)cc1)C2)NCC(F)(F)F (centres unmarked) [Compound 51418, 3-(6-(4-Chlorophenylsullfonamido)-5,6,7,8-tetrahydronaphthalen-1-yl)-N-(2,2,2-trifluoroethyl)-propanamide]
affinity for TP receptor [1]: most tolerable substitutions
affinity for TP receptor [2]: most tolerable substitutions
Plasma (compound) [3]: 109 (+/− 45) nM
XCOOH Plasma (carboxylic acid hydrolysis product 51280) [3]: 100 (+/− 43) nM

O=C(O)Cc1ccc(CCNS(=O)(=O)c2ccc(Cl)cc2)cc1 [Daltroban]
concentration at 1 h ([4]; female, B6C3HF1, mouse, brain, ip, 5 mg/kg, Brain, mice, 5 mg/kg i.p., 1 h after dosing): 133 ng/mL
concentration at 4 h ([4]; female, B6C3HF1, mouse, brain, ip, 5 mg/kg, Brain, mice, 5 mg/kg i.p., 4 h after dosing): 55.9 ng/mL
Kp at 1 h [4, 6]: 0.04
Kp at 4 h [4, 6]: 0.06
Kp at 1 h [4, 7]: 0.02
Kp at 4 h [4, 7]: 0.03
concentration at 1 h ([4]; female, B6C3HF1, mouse, plasma, ip, 5 mg/kg, Plasma, mice, 5 mg/kg i.p., 1 h after dosing): 6450 ng/mL
concentration at 4 h ([4]; female, B6C3HF1, mouse, plasma, ip, 5 mg/kg, Plasma, mice, 5 mg/kg i.p., 4 h after dosing): 1790 ng/mL
fraction unbound ([5]; brain homogenate, equilibrium dialysis, read-out: fu(brain) (fraction unbound)): 0.221
plasma/brain unbound fraction ratio ([5]; plasma and brain homogenate, ratio of unbound fractions plasma/brain, read-out: fu(pl)/fu(br)): 0.52

O=S(=O)(NC1CCc2c(CCc3nn[nH]n3)cccc2C1)c1ccc(Cl)cc1 (centres unmarked) [Compound 51279, N-(5-(2-(2H-Tetrazol-5-yl)ethyl)-1,2,3,4-tetrahydronaphthalen-2-yl)-4-chlorobenzenesulfonamide]
affinity for TP receptor [1]: most tolerable substitutions
affinity for TP receptor ([1]; listed as CNDR-51279): well tolerated
affinity for TP receptor [2]: most tolerable substitutions
affinity for TP receptor ([2]; listed as CNDR-51279): well tolerated
brain penetration / brain levels of the drug ([4]; B6C3F1 mice, 5 mg/kg, 1 hour after injection): very little brain penetration

CCCCCNC(=O)NS(=O)(=O)c1cc([N+](=O)[O-])ccc1NC1CCCCC1 [BM567]
B/P (brain-to-plasma ratio) ([4]; mice, 5 mg/kg i.p., 1 h): 0.01
Brain [4, 8]: 40.2 ± 12.3 ng/mL
Plasma [4, 8]: 3600 ± 923 ng/mL
B/P (brain-to-plasma ratio) ([4]; mice, 5 mg/kg i.p., 4 h): 0.01
Brain [4, 9]: 18.5 ± 7.8 ng/mL
Plasma [4, 9]: 2248 ± 1400 ng/mL
fu(plasma) (fraction unbound) ([5]; plasma, equilibrium dialysis): 0.004 +/− 0.001
fu(pl)/fu(br) ([5]; ratio of unbound fractions plasma/brain): 0.20

O=S(=O)(NC1CCc2c(CCC3OCCO3)cccc2C1)c1ccc(Cl)cc1 (centres unmarked) [Compound 51414]
brain penetration / brain levels of the drug ([4]; B6C3F1 mice, 5 mg/kg, 1 hour after injection; 5 mg/kg): greatly increased brain levels of the drug
brain penetration / brain levels of the drug ([4]; B6C3F1 mice, 5 mg/kg, 1 hour after injection; listed as CNDR-51414, 5 mg/kg): brain-penetrant
